Test results taken from patent publication US20230085307A1, “PYRIDAZINONE COMPOUND AND HERBICIDE” (NISSAN CHEMICAL CORPORATION, priority 2019, published 2023).

Assays:
green foxtail [1] = assay: Test Example 5: herbicidal effect by foliage application, plastic box (Table 20, symbol G); type: in vivo, green foxtail (Setaria viridis); details: foliage application, 320 g/ha, three weeks after application
Procedure, shortened: (§1)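 Plants were sown into sterilized diluvial soil under about 1.5 cm cover and kept in a greenhouse at 25° C. to 30° C. Fourteen days on, foliage received an even spray of the diluted emulsion. Herbicidal or crop effect was judged three weeks afterwards.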

southern crabgrass [2] = assay: Test Example 4: herbicidal effect by soil treatment (Table 19, symbol F); type: in vivo, southern crabgrass (Digitaria ciliaris); details: amount of applied herbicide 320 g/ha
Procedure, shortened: (§2)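 In this soil treatment, the formulated compound reached the seeds only through the soil: seeds were buried about 1.5 cm deep in sterilized diluvial soil, then the diluted emulsion was sprayed over the surface. After three weeks at 25° C. to 30° C. in a greenhouse, effects were graded on criteria from an earlier test.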

barnyard grass [3] = assay: Test Example 4: herbicidal effect by soil treatment (Table 19, symbol H); type: in vivo, barnyard grass (Echinochloa crus-galli); details: amount of applied herbicide 320 g/ha
Procedure, shortened: as §2

redroot pigweed [4] = assay: Test Example 4: herbicidal effect by soil treatment (Table 19, symbol N); type: in vivo, redroot pigweed (Amaranthus retroflexus); details: amount of applied herbicide 320 g/ha
Procedure, shortened: as §2

redroot pigweed [5] = assay: Test Example 5: herbicidal effect by foliage application, plastic box (Table 20, symbol N); type: in vivo, redroot pigweed (Amaranthus retroflexus); details: foliage application, 320 g/ha, three weeks after application
Procedure, shortened: as §1

chickweed [6] = assay: Test Example 4: herbicidal effect by soil treatment (Table 19, symbol P); type: in vivo, common chickweed (Stellaria media); details: amount of applied herbicide 320 g/ha
Procedure, shortened: as §2

barnyard grass [7] = assay: Test Example 3: herbicidal effect by foliage application, Wagner pot (Table 18, symbol H); type: in vivo, barnyard grass (Echinochloa crus-galli); details: 320 g/ha
Procedure, shortened: (§3)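 Plants were sown in alluvial soil held under 0.1–0.5 cm standing water and grown 14 days in a greenhouse at 25–30 °C. An emulsifiable formulation, water-diluted to the set dose, was then sprayed onto the foliage, and effects were scored three weeks later using previously defined criteria.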

wild oat [8] = assay: Test Example 5: herbicidal effect by foliage application, plastic box (Table 20, symbol I); type: in vivo, wild oat (Avena fatua); details: foliage application, 320 g/ha, three weeks after application
Procedure, shortened: as §1

velvetleaf [9] = assay: Test Example 5: herbicidal effect by foliage application, plastic box (Table 20, symbol M); type: in vivo, velvetleaf (Abutilon theophrasti); details: foliage application, 320 g/ha, three weeks after application
Procedure, shortened: as §1

windgrass [10] = assay: Test Example 4: herbicidal effect by soil treatment (Table 19, symbol L); type: in vivo, windgrass (Apera spica-venti); details: amount of applied herbicide 320 g/ha
Procedure, shortened: as §2

Italian ryegrass [11] = assay: Test Example 4: herbicidal effect by soil treatment (Table 19, symbol K); type: in vivo, Italian ryegrass (Lolium multiflorum); details: amount of applied herbicide 320 g/ha
Procedure, shortened: as §2

barnyard grass [12] = assay: Test Example 5: herbicidal effect by foliage application, plastic box (Table 20, symbol H); type: in vivo, barnyard grass (Echinochloa crus-galli); details: foliage application, 320 g/ha, three weeks after application
Procedure, shortened: as §1

southern crabgrass [13] = assay: Test Example 5: herbicidal effect by foliage application, plastic box (Table 20, symbol F); type: in vivo, southern crabgrass (Digitaria ciliaris); details: foliage application, 320 g/ha, three weeks after application
Procedure, shortened: as §1

windgrass [14] = assay: Test Example 5: herbicidal effect by foliage application, plastic box (Table 20, symbol L); type: in vivo, windgrass (Apera spica-venti); details: foliage application, 320 g/ha, three weeks after application
Procedure, shortened: as §1

persian speedwell [15] = assay: Test Example 4: herbicidal effect by soil treatment (Table 19, symbol R); type: in vivo, Persian speedwell (Veronica persica); details: amount of applied herbicide 320 g/ha
Procedure, shortened: as §2

blackgrass [16] = assay: Test Example 4: herbicidal effect by soil treatment (Table 19, symbol J); type: in vivo, blackgrass (Alopecurus myosuroides); details: amount of applied herbicide 320 g/ha
Procedure, shortened: as §2

Chinese sprangletop = assay: Test Example 3: herbicidal effect by foliage application, Wagner pot (Table 18, symbol D); type: in vivo, chinese sprangletop (Leptochloa chinensis); details: 320 g/ha
Procedure, shortened: as §3

velvetleaf [17] = assay: Test Example 4: herbicidal effect by soil treatment (Table 19, symbol M); type: in vivo, velvetleaf (Abutilon theophrasti); details: amount of applied herbicide 320 g/ha
Procedure, shortened: as §2

green foxtail [18] = assay: Test Example 4: herbicidal effect by soil treatment (Table 19, symbol G); type: in vivo, green foxtail (Setaria viridis); details: amount of applied herbicide 320 g/ha
Procedure, shortened: as §2

rice flat sedge = assay: Test Example 3: herbicidal effect by foliage application, Wagner pot (Table 18, symbol E); type: in vivo, rice flat sedge (Cyperus iria); details: 320 g/ha
Procedure, shortened: as §3

blackgrass [19] = assay: Test Example 5: herbicidal effect by foliage application, plastic box (Table 20, symbol J); type: in vivo, blackgrass (Alopecurus myosuroides); details: foliage application, 320 g/ha, three weeks after application
Procedure, shortened: as §1

Italian ryegrass [20] = assay: Test Example 5: herbicidal effect by foliage application, plastic box (Table 20, symbol K); type: in vivo, Italian ryegrass (Lolium multiflorum); details: foliage application, 320 g/ha, three weeks after application
Procedure, shortened: as §1

persian speedwell [21] = assay: Test Example 5: herbicidal effect by foliage application, plastic box (Table 20, symbol R); type: in vivo, Persian speedwell (Veronica persica); details: foliage application, 320 g/ha, three weeks after application
Procedure, shortened: as §1

lambsquarters [22] = assay: Test Example 4: herbicidal effect by soil treatment (Table 19, symbol O); type: in vivo, lambsquarters (Chenopodium album); details: amount of applied herbicide 320 g/ha
Procedure, shortened: as §2

wild oat [23] = assay: Test Example 4: herbicidal effect by soil treatment (Table 19, symbol I); type: in vivo, wild oat (Avena fatua); details: amount of applied herbicide 320 g/ha
Procedure, shortened: as §2

lambsquarters [24] = assay: Test Example 5: herbicidal effect by foliage application, plastic box (Table 20, symbol O); type: in vivo, lambsquarters (Chenopodium album); details: foliage application, 320 g/ha, three weeks after application
Procedure, shortened: as §1

chickweed [25] = assay: Test Example 5: herbicidal effect by foliage application, plastic box (Table 20, symbol P); type: in vivo, common chickweed (Stellaria media); details: foliage application, 320 g/ha, three weeks after application
Procedure, shortened: as §1

CCCC(=O)Oc1c(C)nn(C)c(=O)c1-c1c(-c2ccc(OCC)nc2)sc2ccccc12 [1-077]
herbicidal effect grade, G: green foxtail (green foxtail [1]): 1 (Herbicidal rate of 5% or more and less than 20%) | herbicidal effect rating, F: southern crabgrass (southern crabgrass [2]): 0 (Herbicidal rate of 5% or less (almost no effect)) | herbicidal effect rating, H: barnyard grass (barnyard grass [3]): 0 (Herbicidal rate of 5% or less (almost no effect)) | herbicidal effect rating, N: redroot pigweed (redroot pigweed [4]): 0 (Herbicidal rate of 5% or less (almost no effect)) | herbicidal effect grade, N: redroot pigweed (redroot pigweed [5]): 0 (Herbicidal rate of 5% or less (almost no effect)) | herbicidal effect rating, P: chickweed (chickweed [6]): 4 (Herbicidal rate of 70% or more and less than 90%) | herbicidal effect on H (barnyard grass), rating 0-5 (barnyard grass [7]): 4 (Herbicidal rate of 70% or more and less than 90%) | herbicidal effect grade, I: wild oat (wild oat [8]): 1 (Herbicidal rate of 5% or more and less than 20%) | herbicidal effect grade, M: velvetleaf (velvetleaf [9]): 4 (Herbicidal rate of 70% or more and less than 90%) | herbicidal effect rating, L: windgrass (windgrass [10]): 0 (Herbicidal rate of 5% or less (almost no effect)) | herbicidal effect rating, K: Italian ryegrass (Italian ryegrass [11]): 0 (Herbicidal rate of 5% or less (almost no effect)) | herbicidal effect grade, H: barnyard grass (barnyard grass [12]): 2 (Herbicidal rate of 20% or more and less than 40%) | herbicidal effect grade, F: southern crabgrass (southern crabgrass [13]): 0 (Herbicidal rate of 5% or less (almost no effect)) | herbicidal effect grade, L: windgrass (windgrass [14]): 0 (Herbicidal rate of 5% or less (almost no effect)) | herbicidal effect rating, R: persian speedwell (persian speedwell [15]): 4 (Herbicidal rate of 70% or more and less than 90%) | herbicidal effect rating, J: blackgrass (blackgrass [16]): 0 (Herbicidal rate of 5% or less (almost no effect)) | herbicidal effect on D (Chinese sprangletop), rating 0-5 (Chinese sprangletop): 1 (Herbicidal rate of 5% or more and less than 20%) | herbicidal effect rating, M: velvetleaf (velvetleaf [17]): 0 (Herbicidal rate of 5% or less (almost no effect)) | herbicidal effect rating, G: green foxtail (green foxtail [18]): 0 (Herbicidal rate of 5% or less (almost no effect)) | herbicidal effect on E (rice flat sedge), rating 0-5 (rice flat sedge): 4 (Herbicidal rate of 70% or more and less than 90%) | herbicidal effect grade, J: blackgrass (blackgrass [19]): 1 (Herbicidal rate of 5% or more and less than 20%) | herbicidal effect grade, K: Italian ryegrass (Italian ryegrass [20]): 1 (Herbicidal rate of 5% or more and less than 20%) | herbicidal effect grade, R: persian speedwell (persian speedwell [21]): 5 (Herbicidal rate of 90% or more (almost completely withered)) | herbicidal effect rating, O: lambsquarters (lambsquarters [22]): 0 (Herbicidal rate of 5% or less (almost no effect)) | herbicidal effect rating, I: wild oat (wild oat [23]): 0 (Herbicidal rate of 5% or less (almost no effect)) | herbicidal effect grade, O: lambsquarters (lambsquarters [24]): 0 (Herbicidal rate of 5% or less (almost no effect)) | herbicidal effect grade, P: chickweed (chickweed [25]): 3 (Herbicidal rate of 40% or more and less than 70%)
